Entries after “also recorded” stand apart in the source; their conditions may differ. Ends that are not written are not given here.
Key:
[1] = Dose proportionality PK study, i.p., male SD rats; conditions: for AUC(0-inf) / Cmax / Tmax / half-life: male, SD, rat, plasma, ip
Experimental: Male SD rats were utilized in this study and distributed into two groups (each group contained 6 animals). To each group, PSTi8 was administered i.p. at a dose of 10 and 20 mg/kg in rats.
(§1) After dosing in rats, blood (250 µL) samples were collected in EDTA containing microcentrifuge tubes at 0.08, 0.16, 0.33, 0.50, 0.75, 1, 2, 3, 4, 5 and 6 h time points. Plasma was separated from the blood after centrifugation and kept in a −80 °C freezer for LC-MS/MS analysis.
The PK parameters of PSTi8 were estimated with a one-compartmental PK model in Phoenix WinNonlin. […] The PK parameters include the elimination constant (K10), absorption constant (K01), Tmax, elimination half-life (K10-HL), absorption half-life (K01-HL), Cmax, AUC (stands for model derived AUC0-∞), CL/F, mean residence time (MRT) and Vd/F. The bioavailability of PSTi8 was determined using the ratio between the AUC from i.p. or s.c. and i.v. routes, after normalizing the dose.

[2] = Gender difference PK study, i.v. and i.p., female SD rats
Experimental: Female SD rats were utilized and distributed into two groups (each group contained 6 animals). To each group, a 5 mg/kg dose of PSTi8 was administered i.v. and i.p. for PK determination.
as §1
The PK parameters of PSTi8 were estimated with a one-compartmental PK model in Phoenix WinNonlin. The i.p. and s.c. PK were best described by a one-compartment first-order PK model without lag time. The i.v. PK was well explained by a one-compartment model with a bolus input and first-order elimination rate. The PK parameters include the elimination constant (K10), absorption constant (K01), Tmax, elimination half-life (K10-HL), absorption half-life (K01-HL), Cmax, AUC (stands for model derived AUC0-∞), CL/F, mean residence time (MRT) and Vd/F. The bioavailability of PSTi8 was determined using the ratio between the AUC from i.p. or s.c. and i.v. routes, after normalizing the dose.

[3] = PK and bioavailability after i.v., i.p. and s.c. administration in male SD rats; conditions: for K01 (absorption constant) / K10 (elimination constant) / half-life: male SD rats
Experimental: Rats were distributed into three groups and each group contained 6 animals.
as §1
The i.p. and s.c. PK were best described by a one-compartment first-order PK model without lag time. The i.v. PK was well explained by a one-compartment model with a bolus input and first-order elimination rate. The PK parameters include the elimination constant (K10), absorption constant (K01), Tmax, elimination half-life (K10-HL), absorption half-life (K01-HL), Cmax, AUC (stands for model derived AUC0-∞), CL/F, mean residence time (MRT) and Vd/F. The bioavailability of PSTi8 was determined using the ratio between the AUC from i.p. or s.c. and i.v. routes, after normalizing the dose.

[4] = female, SD, rat, plasma, ip, 5 mg/kg
[5] = female, SD, rat, plasma, iv, 5 mg/kg
[6] = male, SD, rat, plasma, ip, 5 mg/kg
[7] = male, SD, rat, plasma, iv, 5 mg/kg
[8] = male, SD, rat, plasma, sc, 5 mg/kg

## PEGKGEQEHSQQKEEEEEMAV-NH2 [PSTi8]
[1]; i.p. 10 and 20 mg/kg, male SD rats
  PK pattern in dose proportionality study: non-linear PK; also recorded: non-linear pharmacokinetics
[1]; 10 mg/kg
  AUC(0-inf): 32400 ng·h/mL
  Cmax: 24300 ng/mL
  Tmax: 22.8 min
[1]; 10 mg/kg, K01-HL (absorption half-life), i.p. 10 mg/kg, male SD rats
  half-life: 9 ± 3 min
[1]; 10 mg/kg, K10-HL (elimination half-life), i.p. 10 mg/kg, male SD rats
  half-life: 35.4 ± 13.8 min
[1]; 20 mg/kg
  AUC(0-inf): 111000 ng·h/mL
  Cmax: 85600 ng/mL
  Tmax: 22.8 min
[1]; 20 mg/kg, K01-HL (absorption half-life), i.p. 20 mg/kg, male SD rats
  half-life: 8.4 ± 1.8 min
[1]; 20 mg/kg, K10-HL (elimination half-life), i.p. 20 mg/kg, male SD rats
  half-life: 33.6 ± 5.4 min
[2]; [4]
  AUC: 9980 ± 523 ng·h/mL
  AUC(0-inf): 8820 ± 589 ng·h/mL
  Cmax: 7000 ± 216 ng/mL
  Tmax: 28.8 min
  bioavailability: 91.9 ± 6.14%
  half-life: 19.2 ± 1.2 min
[2]; [5]
  AUC(0-inf): 9590 ± 1750 ng·h/mL
  Cmax: 42600 ng/mL
  MRT: 13.2 ± 1.2 min
  half-life: 9.6 ± 1.2 min
[2]; i.p. 5 mg/kg, female SD rats
  K01 (absorption constant): 2.14 ± 0.12 h⁻¹
  K10 (elimination constant): 2.19 ± 0.18 h⁻¹
  K10-HL (elimination half-life): 0.32 ± 0.02 h
[2]; i.v. 5 mg/kg, female SD rats
  K10 (elimination constant): 4.50 ± 0.48 h⁻¹
[2]; male vs female SD rats, 5 mg/kg i.p. and i.v., 5 mg/kg
  gender difference in PK parameters and bioavailability: no gender differences; also recorded: no significant difference
[3]; i.p. 5 mg/kg
  K01 (absorption constant): 2.90 ± 0.89 h⁻¹
  K10 (elimination constant): 1.63 ± 0.33 h⁻¹
[3]; i.v. 5 mg/kg
  K10 (elimination constant): 3.79 ± 2.19 h⁻¹
[3]; [6]
  AUC(0-inf): 8100 ± 1040 ng·h/mL
  Cmax: 6050 ± 348 ng/mL
  Tmax: 28.8 min
  bioavailability: 95 ± 12.2%
[3]; male, SD, rat, plasma, ip, 5 mg/kg, K01-HL (absorption half-life), i.p. 5 mg/kg
  half-life: 15.6 ± 5.4 min
[3]; male, SD, rat, plasma, ip, 5 mg/kg, K10-HL (elimination half-life), i.p. 5 mg/kg
  half-life: 26.4 ± 6 min
[3]; [7]
  AUC(0-inf): 8530 ± 1600 ng·h/mL
  Cmax: 30200 ± 14600 ng/mL
  MRT: 21.6 ± 15.6 min
[3]; male, SD, rat, plasma, iv, 5 mg/kg, K10-HL (elimination half-life), i.v. 5 mg/kg
  half-life: 15 ± 10.8 min
[3]; [8]
  AUC(0-inf): 6690 ± 1510 ng·h/mL
  Cmax: 4110 ± 888 ng/mL
  Tmax: 36 min
  bioavailability: 78.5 ± 17.7%
[3]; male, SD, rat, plasma, sc, 5 mg/kg, K01-HL (absorption half-life), s.c. 5 mg/kg
  half-life: 24.6 ± 0.6 min
[3]; male, SD, rat, plasma, sc, 5 mg/kg, K10-HL (elimination half-life), s.c. 5 mg/kg
  half-life: 25.2 ± 0.24 min
[3]; s.c. 5 mg/kg
  K01 (absorption constant): 1.68 ± 0.02 h⁻¹
  K10 (elimination constant): 1.66 ± 0.01 h⁻¹

From PMC8780964, “Evaluation of the Pharmacokinetics of the Pancreastatin Inhibitor PSTi8 Peptide in Rats: Integration of In Vitro and In Vivo Findings” (Molecules, 2022)
